Test results: patent US20060025419A1, “Imidazoquinoxaline compound for the treatment of melanoma” (priority 2004, published 2006)

What was measured:
melanoma tumor = assay: H&E and TUNEL staining of melanoma tumor sections; format: in vivo, mice
Experimental: FIGS. 4A-4H. […] Paraffin-embedded tumor tissues were subjected to H&E staining (FIGS. 4C & D) and DeadEnd Fluorometric TUNEL-assay for detection of apoptosis (FIGS. 4E & F). The TUNEL-positive cells are visualized in green fluorescence in a red (Propidium Iodide) background by fluorescence microscopy. […] After 36 h incubation, cells were collected and fixed with 1% formaldehyde and 70% ice-cold ethanol. The apoptotic cells were examined using TUNEL-assay and analyzed by flow cytometry through measuring fluorescein-12-dUTP at 520 nm. The apoptotic rate is indicated in each box. Data shown are represented one of three independent experiments. […] Cells were fixed and stained with Propidium iodide. Cell fluorescence was measured by flow cytometry and the data were analyzed using DNA content histogram deconvolution software (Multicycle from Phoenix Flow Systems). […]
(§1) In melanoma, constitutive activation of NF-κB confers tumor survival capacity and escape from apoptosis (Richmond, 2002). […] Apoptotic cells were labeled using DeadEnd Fluorometric TUNEL reagent and analyzed by flow cytometry. […] Thirty-six hours after transfection, cells were collected, labeled with TUNEL reagent and analyzed by flow cytometry. […] Induction of DNA fragmentation, a hallmark of apoptosis, was evaluated by staining DNA with ethidium bromide followed by quantization by FACS analysis.

caspase-3 = assay: Caspase-3 activity assay (Ac-DEVD-pNA) in cytosol extracts; format: cell-based, human
A375 cells = assay: Growth of cultured melanoma cells, hemocytometer counting; format: cell-based, human
Text: (§2) A super-repressor form of human IκBα (S32, 36A) resistant to degradation and mutant IKKβ […]) was kindly provided by Javier […] Cancer Center, University of California-San Diego School of Medicine). Antibodies to IKKα (H-744), IKKβ (H-470), Bcl-2, Bax and AIF were purchased from Santa Cruz Biotechnology, Inc. (Santa Cruz, Calif.). […] N-acetyl-L-cysteine (NAC) and Tiron were from Sigma-Aldrich (St. Louis, Mo.). Normal human epidermal melanocytes (NHEM) were provided by the Skin Disease Research Center in Vanderbilt University School of Medicine. NHEM were cultured in 154 medium with 1× human melanocyte growth supplement (Cascade Biologicals, Inc.). The melanoma cell lines, Sk Mel5, A375 and Hs294T, originally established from human metastatic melanoma, were purchased from American Type Culture Collection and cultured in DMEM: Ham's F-12 medium containing 10% FBS, 2 mM of L-glutamine, 100 μM of MEM Non-Essential Amino Acids (Life Technologies, Inc.), and 1 mM of sodium pyruvate (Sigma Chemical Co.). Aberrant activation of NF-κB has been associated with carcinogenesis, and constitutively high IKK activity has been detected in many tumor types, including human melanoma (Yang & Richmond, 2001; […] et al., 2003; […] et al., 2003). IKK is a major regulator of the NF-κB pathway and therefore represents an attractive therapeutic target in advanced cancers. […] After three days of culture, the cell numbers were determined by hemocytometer counting (Table 1).

Hs 294T cells = assay: as above; format: cell-based, human
Text: as §2

CXCL1 = CXCL1 ELISA of melanoma cell culture medium; format: cell-based, human; details: SK-Mel-5 supernatant, 14 h
Experimental: FIGS. 2A-2D. […] SK-Mel-5 cells were plated in 6-well plates (1.5×10^5 cells per well) and then cotransfected with 1 μg of HIV long terminal repeat NF-κB-luciferase vector and β-galactosidase vector DNA using Lipofectamine Plus reagent. Twenty-four hours after transfection, cells in duplicate plates were treated with 0, 0.1, 1 and 10 μM of BMS-345541in DMSO and incubated for an additional 36 h. Cell extract was prepared and luciferase activity was detected. Luciferase activity was normalized to β-galactosidase activity. […] ATP. The [γ-^32P]-labeled IκBα protein was visualized by autoradiography. […] The supernatants from B were cleared by centrifugation, or (FIG. 2D) sera were collected from mice, and subjected to ELISA assay for CXCL1 according to the manufacture's protocol. Data shown are from a representative data set from two experiments performed in duplicate (total n=4 for each point). For ELISA; the mean value is representative of serum samples from five mice.
To quantify the CXCL1 expression levels in vivo and in vitro, serum was collected at the end of the experiments from mice bearing SK-Mel-5 melanoma tumors or from the cleared supernatants of melanoma cell culture medium. Briefly, 1.5×10^5 of SK-Mel-5 cells/well were seeded in six-well plates in duplicate in DMEM/F12 medium containing 10% FBS.

[1] = system: 15 other kinases including JNK, or mitogen-activated protein kinase-activated protein kinase 2; details: cited from earlier work
A375 tumors = assay: Melanoma tumor growth in nude mice; format: in vivo; details: 75 mg/kg orally once daily, 21 days, vs vehicle
[2] = Body weight and tolerability in treated tumor-bearing mice; format: in vivo
SK-Mel-5 tumors = assay: Melanoma tumor growth in nude mice; format: in vivo; details: 21 days
Experimental: FIGS. 1A-1E. […] After 72 h treatment, cells were photographed. […] 2×10^6 SK-Mel-5 melanoma cells were subcutaneously inoculated into nude mice (n=5 mice per group). […] Tumor size was measured using an electronic digital caliper at intervals of 4 days. Tumor volume was calculated and statistically analyzed.
Animal experimentation was undertaken according to protocols approved by the Institutional of Animal Care and Use Committee at Vanderbilt University. […] Tumor size was measured with an electronic digital caliper. Tumor volume was calculated by width^2×length×0.52 and expressed as mean±SD mm^3.

SK-Mel-5 cells [3] = assay: TUNEL assay of cultured cells by flow cytometry; format: cell-based, human; details: 36 h
Experimental: (§3) FIGS. 4A-4H. […] Paraffin-embedded tumor tissues were subjected to H&E staining (FIGS. 4C & D) and DeadEnd Fluorometric TUNEL-assay for detection of apoptosis (FIGS. 4E & F). The TUNEL-positive cells are visualized in green fluorescence in a red (Propidium Iodide) background by fluorescence microscopy. […] After 36 h incubation, cells were collected and fixed with 1% formaldehyde and 70% ice-cold ethanol. The apoptotic cells were examined using TUNEL-assay and analyzed by flow cytometry through measuring fluorescein-12-dUTP at 520 nm. The apoptotic rate is indicated in each box. Data shown are represented one of three independent experiments. […] Cells were fixed and stained with Propidium iodide. Cell fluorescence was measured by flow cytometry and the data were analyzed using DNA content histogram deconvolution software (Multicycle from Phoenix Flow Systems). The percentage of apoptotic cells with fragmented DNA (PI intensity sub-G0/G1) is indicated at each time point. The experiments were repeated twice, in duplicates for each point (total n=4).
as §1

SK-Mel-5 cells [4] = assay: Nuclear apoptosis (DNA fragmentation) by flow cytometry; format: cell-based, human; details: for rate of apoptotic cells: 10 μM, 24 h
Experimental: as §3

Cc1ccc2nc(NCCN)c3ncc(C)n3c2c1.Cl [BMS-345541, 4(2′-aminoethyl)amino-1,8-dimethylimidazo(1,2-a)quinoxaline]
nuclear apoptosis in tumor sections (H&E, TUNEL) (melanoma tumor; 25 mg/kg daily): obvious nuclear condensation and DNA fragment staining | TUNEL staining of tumor sections (melanoma tumor; 75 mg/kg): TUNEL staining appeared extensively over the tumor sections | specific caspase-3 activity (caspase-3; SK-Mel-5, 10 μM BMS-345541, 36 h): 1.6±0.092 pmol/min/μg protein | specific caspase-3 activity (caspase-3; SK-Mel-5, 10 μM BMS-345541 in combination with 50 μM Z-VAD-fmk, 36 h): 0.44±0.035 pmol/min/μg protein | cell number after three days of culture (A375 cells; A375, 0.1 μM): 3.2 ± 0.38 10^5 | cell number after three days of culture (A375 cells; A375, 1.0 μM): 1.6 ± 0.38 10^5 | cell number after three days of culture (A375 cells; A375, 10 μM): 0.020 ± 0.01 10^5 | cell number after three days of culture (A375 cells; A375, 100 μM): 0 10^5 | cell number after three days of culture (Hs 294T cells; 0.1 μM): 1.9 ± 0.15 10^5 | cell number after three days of culture (Hs 294T cells; 1.0 μM): 2.2 ± 0.42 10^5 | cell number after three days of culture (Hs 294T cells; 10 μM): 0.013 ± 0.01 10^5 | cell number after three days of culture (Hs 294T cells; 100 μM): 0 10^5 | CXCL1 expression in melanoma cell cultures (CXCL1): suppressed in a concentration-dependent manner | effect on 15 other kinases [1]: failing to affect | inhibition of tumor growth (A375 tumors): 69±11% | average loss of body weight ([2]; 10 mg/kg orally once daily): 5% | average loss of body weight ([2]; 25 mg/kg orally once daily): 9% | average loss of body weight ([2]; 75 mg/kg orally once daily): 14% | tolerability in mice ([2]; oral, once daily, 21 days): well tolerated | SK-Mel-5 tumor growth (FIG. 1B) (SK-Mel-5 tumors; 10, 25 and 75 mg/kg orally once daily): effectively inhibits SK-Mel-5 tumor growth in a dose-dependent manner | inhibition of tumor growth (SK-Mel-5 tumors; SK-Mel-5 tumors, 75 mg/kg orally once daily, vs vehicle): 86±2.8% | increase in apoptotic cells vs vehicle (TUNEL) (SK-Mel-5 cells [3]; SK-Mel-5, 1.0 μM): 2 fold | increase in apoptotic cells vs vehicle (TUNEL) (SK-Mel-5 cells [3]; SK-Mel-5, 10 μM): 3.3 fold | increase in apoptotic cells vs vehicle (TUNEL) (SK-Mel-5 cells [3]; SK-Mel-5, 100 μM): 4 fold | rate of apoptotic cells (SK-Mel-5 cells [4]; AIF siRNA-transfected cells): 10.3±3.8% | rate of apoptotic cells (SK-Mel-5 cells [4]; control siRNA-transfected cells): 24.3±6.8% | induction of DNA fragmentation (SK-Mel-5 cells [4]; SK-Mel-5, 10 μM, 0-48 h (FIG. 4H)): time-dependent
